Laboratory results taken from patent publication US20240327415A1, “Multicomponent Complexes, Including Salts, Crystalline Forms, and Hydrates and Solvates of ENT1 Inhibitors” (iTeos Belgium SA, priority 2023, published 2024).
In brackets after ≈: the same amount, converted by molar mass. Like-named read-outs stand apart in the source and are kept apart here.

What was measured:
Assay type in all cases: physicochemical
[1] = pH solubility studies in buffers and biorelevant media (Example 16); conditions: for solubility at 24 h: thermodynamic from solid
Protocol: Example 16—pH Solubility Studies—(1) Crystalline Form 2 Compound 1 di(hydrogen sulfate) trihydrate, (2) Crystalline Form 3 Compound 1 di(hydrogen sulfate), and (3) Crystalline Form 4 Compound 1 mono(hydrogen sulfate): pH solubility studies were carried out on the prepared crystalline Form 2 Compound 1 di(hydrogen sulfate) trihydrate, crystalline Form 3 Compound 1 di(hydrogen sulfate) and crystalline Form 4 Compound 1 mono(hydrogen sulfate) in the following media: (1) HCl/KCl, pH 1.2; (2) Acetate, pH 4.5; (3) Phosphate, pH 6.8; (4) FaSSIF; (5) FeSSIF; and (6) FaSSGF. Slurries of the hydrogen sulfate forms were prepared in the appropriate medium and stirred at 25° C. For the experiments in the buffer media, the pH of the slurry samples was measured and adjusted as required after 1 hour and 23 hours of the slurrying. Additional solid was added where dissolution was observed post-adjustment. The pH of the samples in the biorelevant media was measured at the 23 hour timepoint. No pH adjustment was made for the biorelevant media. After a total of 24 hours of slurrying, the mother liquors were extracted via centrifugation, and the concentrations and solution purity were determined by HPLC. The residual solids were isolated and analyzed by XRPD and are shown in FIG. 77, FIG. 78, and FIG. 79. The assessment was repeated for some of the samples, where required.

[2] = seven-day solid stability studies (ambient; 40° C./75% RH; 80° C.), XRPD and HPLC
How it was run: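 Solid samples of the free base and sulfate salt forms held 7 days under three conditions: ambient light, temperature and humidity (open vial), 40° C./75% RH (open vial), and 80° C. (closed vial). Residual solids then analysed by XRPD and HPLC purity.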

[3] = Variable Temperature X-Ray Powder Diffraction (VT-XRPD)
Protocol: In the examples below, VT-XRPD analysis was carried out on a Philips X'Pert Pro Multipurpose diffractometer equipped with a temperature chamber. The samples were scanned between 4 and 36° 2θ using Cu K radiation (α1 λ=1.54060 Å; α2=1.54443 Å; β=1.39225 Å; α1: α2 ratio=0.5; most, if not all, B radiation is removed from the beam using an X-ray mirror) running in Bragg-Brentano geometry (step size 0.008° 2θ) using 40 kV/40 mA generator settings. Measurements were carried out from ambient temperature to an upper limit of 250° C., with a final measurement taken after cooling.
VT-XRPD analysis was carried out on a Philips X'Pert Pro Multipurpose diffractometer equipped with a temperature chamber. The samples were scanned between 4 and 36° 2θ using Cu K radiation (α1 λ=1.54060 Å; α2=1.54443 Å; β2=1.39225 Å; α1:α2 ratio=0.5; most, if not all, β radiation is removed from the beam using an X-ray mirror) running in Bragg-Brentano geometry (step size 0.008° 2θ) using 40 kV/40 mA generator settings. Measurements were carried out from ambient temperature to an upper limit of 250° C., with a final measurement taken after cooling.

[4] = 7 days, 40° C./75% RH (open vial)

CCCN1CCNCCCNC(=O)c2cc(OC)c(OC)c(c2)OCCC[C@@H](OC(=O)c2cc(OC)c(OC)c(OC)c2)CC1
ML purity ([1]; FaSSGF, 25° C., 24 h, pH after 24 h 0.93): 99.67 % area
solubility at 24 h ([1]; FaSSGF, 25 °C, pH 0.93, fassgf or other biorelevant, FaSSGF, 25° C., 24 h, pH after 24 h 0.93, read-out: Solub.): 81.1 mg/mL (≈ 128 mM)
ML purity ([1]; FaSSIF, 25° C., 24 h, pH after 24 h 1.12): 99.80 % area
solubility at 24 h ([1]; FaSSIF, 25 °C, pH 1.12, fassif, FaSSIF, 25° C., 24 h, pH after 24 h 1.12, read-out: Solub.): 76.6 mg/mL (≈ 121 mM)
ML purity ([1]; FeSSIF, 25° C., 24 h, pH after 24 h 1.07): 99.72 % area
solubility at 24 h ([1]; FeSSIF, 25 °C, pH 1.07, fessif, FeSSIF, 25° C., 24 h, pH after 24 h 1.07, read-out: Solub.): 133 mg/mL (≈ 211 mM)
solubility at 24 h ([1]; HCl/KCl buffer, 25 °C, pH 1.2, simulated gastric fluid, pH 1.2 (HCl/KCl), attempt 1, 25° C., 24 h, pH after 24 h 0.98→1.22, read-out: Solub.): > 86.7 mg/mL
solubility at 24 h ([1]; acetate buffer pH 4.5, 25 °C, pH 4.5, aqueous buffer, pH 4.5 buffer media, Attempt 1, 25° C., 24 hours, read-out: solubility): < 20 mg/mL
solubility at 24 h ([1]; acetate buffer, 25 °C, pH 4.5, aqueous buffer, pH 4.5 (Acetate), attempt 1, 25° C., 24 h, pH after 24 h 4.53, read-out: Solub.): 17.8 mg/mL (≈ 28.2 mM)
solubility at 24 h ([1]; acetate buffer, 25 °C, pH 4.5, aqueous buffer, pH 4.5 (Acetate), attempt 2, 25° C., 24 h, pH after 24 h 1.68→4.62, read-out: Solub.): 94.5 mg/mL (≈ 150 mM)
solution purity of the extracted mother liquors ([1]; after 24 hours slurrying in the media (Form 2: all samples except pH 4.5 Attempt 1)): > 99 % area
solubility at 24 h ([1]; buffers and biorelevant media, 25 °C, pH 1.2, aqueous buffer, pH 1.2 and 4.5 buffers and all the biorelevant media, slurry 25° C., 24 hours, read-out: solubility): > 75 mg/mL
pH solubility ([1]; pH 1.2): pH 1.2: >87 mg/mL
pH solubility: residual solid ([1]; pH 1.2): mg/mL, no solid
ML purity ([1]; pH 1.2 (HCl/KCl), attempt 1, 25° C., 24 h, pH after 24 h 0.98→1.22): 99.13 % area
pH solubility ([1]; pH 4.5): pH 4.5: 95 mg/mL
pH solubility: residual solid ([1]; pH 4.5): mg/mL, Form 4
ML purity ([1]; pH 4.5 (Acetate), attempt 1, 25° C., 24 h, pH after 24 h 4.53): 89.50 % area
ML purity ([1]; pH 4.5 (Acetate), attempt 2, 25° C., 24 h, pH after 24 h 1.68→4.62): 99.76 % area
solution purity of the extracted mother liquors ([1]; pH 4.5 Attempt 1): 89 % area
pH solubility ([1]; pH 6.8): pH 6.8: 12 mg/mL
pH solubility: residual solid ([1]; pH 6.8): mg/mL, Gum
ML purity ([1]; pH 6.8 (Phosphate), attempt 1, 25° C., 24 h, pH after 24 h 1.01→6.87): 99.43 % area
solubility at 24 h ([1]; phosphate buffer, 25 °C, pH 6.8, aqueous buffer, pH 6.8 (Phosphate), attempt 1, 25° C., 24 h, pH after 24 h 1.01→6.87, read-out: Solub.): 12 mg/mL (≈ 19 mM)
solubility at 24 h ([1]; phosphate buffer, 25 °C, pH 6.8, aqueous buffer, pH 6.8 (Phosphate), attempt 2, 25° C., 24 h, pH after 24 h 4.79→6.90, read-out: Solub.): 6.1 mg/mL (≈ 9.66 mM)
7-day Stability studies: Purity compared to input [2]: Purity similar
HPLC [2, 4]: 99.86 % area
XRPD [2, 4]: 2
HPLC ([2]; 7 days, 80° C. (closed vial)): 99.85 % area
XRPD ([2]; 7 days, 80° C. (closed vial)): 2
HPLC ([2]; 7 days, Ambient (open vial)): 99.86 % area
XRPD ([2]; 7 days, Ambient (open vial)): 2
HPLC ([2]; Input sample): 99.92 % area
XRPD ([2]; Input sample): 2
7-day Stability studies: solid form ([2]; all conditions): No change
VT-XRPD: Conv. To Form 5 at [3]: at 80-130 °C
VT-XRPD: Melt from [3]: Melt from 150 °C
VT-XRPD: input form retained at [3]: at 30-50 °C
